pEC50, pIC50: −log10 of the molar value. Converted amounts (≈) assume the structure as drawn.
Experiments:
[1] = Protein binding in plasma (unknown origin); type: ADME, cell-free; conditions: read-out: PPB
[2] = Maximum serum concentration in human at 500 mg, po; type: ADME; parameters: dose 500 mg, route oral
Streptococcus pneumoniae [3] = experiment: Antibacterial activity against erythromycin-susceptible Streptococcus pneumoniae; type: functional
Streptococcus pneumoniae [4] = experiment: Antibacterial activity against erythromycin-resistant Streptococcus pneumoniae; type: functional
[5] = Inhibition of human nAChR expressed in human TE671 cells assessed as reduction in nicotine-induced current response by whole-cell patch-clamp method; type: cell-based; conditions: TE-671
[6] = target: Neuronal acetylcholine receptor; alpha3/beta4 (Homo sapiens, UniProt P30926+P32297); experiment: Inhibition of human alpha3beta4 nAChR assessed as […] in acetylcholine-induced normalized current at 2 uM (reference value: 78.5 +/- 10 uM); type: protein-complex assay
Chain of Neuronal acetylcholine receptor; alpha3/beta4 (P30926 whole entry): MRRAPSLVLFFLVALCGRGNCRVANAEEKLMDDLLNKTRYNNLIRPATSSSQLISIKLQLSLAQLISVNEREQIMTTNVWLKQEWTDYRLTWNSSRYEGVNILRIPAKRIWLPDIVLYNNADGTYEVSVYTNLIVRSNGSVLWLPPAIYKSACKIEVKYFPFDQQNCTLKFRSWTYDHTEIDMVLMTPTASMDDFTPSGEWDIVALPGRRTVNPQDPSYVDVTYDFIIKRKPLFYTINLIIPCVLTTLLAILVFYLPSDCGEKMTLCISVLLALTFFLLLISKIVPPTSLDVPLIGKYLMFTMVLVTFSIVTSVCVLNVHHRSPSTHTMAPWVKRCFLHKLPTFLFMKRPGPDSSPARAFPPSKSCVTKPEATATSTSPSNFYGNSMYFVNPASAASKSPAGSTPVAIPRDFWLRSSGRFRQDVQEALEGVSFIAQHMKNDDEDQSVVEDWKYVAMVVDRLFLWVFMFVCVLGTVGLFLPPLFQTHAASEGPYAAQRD
Chain of Neuronal acetylcholine receptor; alpha3/beta4 (P32297 whole entry): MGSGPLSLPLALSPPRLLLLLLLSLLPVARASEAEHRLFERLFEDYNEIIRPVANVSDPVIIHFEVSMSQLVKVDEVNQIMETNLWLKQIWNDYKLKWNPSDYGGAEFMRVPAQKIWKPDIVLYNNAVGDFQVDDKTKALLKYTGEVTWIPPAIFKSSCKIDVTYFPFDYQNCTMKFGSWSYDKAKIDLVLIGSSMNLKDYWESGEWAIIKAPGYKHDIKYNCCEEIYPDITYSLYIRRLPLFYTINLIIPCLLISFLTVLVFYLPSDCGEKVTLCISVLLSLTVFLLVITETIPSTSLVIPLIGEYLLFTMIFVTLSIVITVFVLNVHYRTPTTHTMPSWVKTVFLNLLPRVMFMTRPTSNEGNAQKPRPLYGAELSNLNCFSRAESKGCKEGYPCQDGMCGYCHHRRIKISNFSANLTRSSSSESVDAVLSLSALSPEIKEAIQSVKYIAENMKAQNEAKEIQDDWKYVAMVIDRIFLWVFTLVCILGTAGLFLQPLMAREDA

Haemophilus influenzae = experiment: Antibacterial activity against Haemophilus influenzae; type: functional
[7] = Maximum serum concentration in human at 500 mg, po measured within 2 hrs; type: ADME, organism-based; parameters: dose 500 mg, route oral; conditions: in vivo
[8] = Terminal half life in human; type: ADME; conditions: read-out: beta t1/2

Question: Which fraction unbound [1] does the source give for `CC[C@H]1OC(=O)[C@H](C)C(=O)[C@H](C)[C@@H](O[C@@H]2O[C@H](C)C[C@H](N(C)C)[C@H]2O)[C@](C)(OCC=Cc2cnc3ccccc3c2)C[C@@H](C)C(=O)[C@H](C)[C@H]2NC(=O)O[C@@]21C` [CETHROMYCIN] here?
Answer: < 0.04

Question: For `CC[C@H]1OC(=O)[C@H](C)[C@@H](O[C@H]2C[C@@](C)(OC)[C@@H](O)[C@H](C)O2)[C@H](C)[C@@H](O[C@@H]2O[C@H](C)C[C@H](N(C)C)[C@H]2O)[C@](C)(OC)C[C@@H](C)C(=O)[C@H](C)[C@@H](O)[C@]1(C)O` [CLARITHROMYCIN], which Cmax [2] is on record?
Answer: 2.5 µg/mL

Question: Which MIC (Streptococcus pneumoniae [3]) does the source give for `CC[C@H]1OC(=O)[C@H](C)C(=O)[C@H](C)[C@@H](O[C@@H]2O[C@H](C)C[C@H](N(C)C)[C@H]2O)[C@](C)(OC)C[C@@H](C)C(=O)[C@H](C)[C@H]2N(CCCCn3cnc(-c4cccnc4)c3)C(=O)O[C@]12C` [TELITHROMYCIN] here?
Answer: 0.06 mg/L (≈ 0.0739 µM)

Question: And the MIC (Streptococcus pneumoniae [4])?
Answer: 0.25 mg/L (≈ 0.308 µM)

Question: And the pIC50 [5]?
Answer: 5.46

Question: What about the pEC50 [6] of the same compound?
Answer: 3.88

Question: With `CC[C@H]1OC(=O)[C@H](C)[C@@H](O[C@H]2C[C@@](C)(OC)[C@@H](O)[C@H](C)O2)[C@H](C)[C@@H](O[C@@H]2O[C@H](C)C[C@H](N(C)C)[C@H]2O)[C@](C)(O)C[C@@H](C)C(=O)[C@H](C)[C@@H](O)[C@]1(C)O` [ERYTHROMYCIN] as the compound, how does the MIC (Haemophilus influenzae) read?
Answer: 0.5 to 2 mg/L (≈ 0.681 to 2.73 µM)

Question: With `CC[C@H]1OC(=O)[C@H](C)[C@@H](O[C@H]2C[C@@](C)(OC)[C@@H](O)[C@H](C)O2)[C@H](C)[C@@H](O[C@@H]2O[C@H](C)C[C@H](N(C)C)[C@H]2O)[C@](C)(O)C[C@@H](C)CN(C)[C@H](C)[C@@H](O)[C@]1(C)O` [AZITHROMYCIN] as the compound, how does the MIC (Haemophilus influenzae) read?
Answer: 0.25 mg/L (≈ 0.334 µM)

Question: What about the Cmax [7] of the same compound?
Answer: 350 to 450 µg/mL

Question: And the half-life [8]?
Answer: 48 to 96 h
